Experimental data reported in publication PMC8563752, “An oxidative metabolic pathway of 4-deoxy-L-erythro-5-hexoseulose uronic acid (DEHU) from alginate in an alginate-assimilating bacterium” (Communications Biology, 2021).
One block for each compound: values may come before it.

What was measured:
[1] = tested on: T1, recFlRed; assay: NADH consumption by absorbance at […] nm, Michaelis-Menten fit; format: biochemical, Flavobacterium sp. UMI-01; conditions: reductase direction; 0.2 mM NADH, 0.15 M KCl, 10 mM sodium phosphate pH 7.4, 20 °C
T1 construct: gene FlRed; native 27 kDa on SDS-PAGE, about 102 kDa on gel filtration, tetramer

[2] = target: T2, recFlDet (Flavobacterium sp. UMI-01, UniProt A0A6S6B272); assay: TBA method (decrease at […] nm), TLC, ESI-MS of product; format: biochemical; conditions: […] potassium phosphate pH […] KCl, […] MgCl2, […] °C
T2 construct: full length 237 residues (25,697 Da), C-terminal His-tag (27,394 Da), E. coli BL21(DE3); native tetra- or pentamer; N-terminus […]
T2 sequence (A0A6S6B272 1-237): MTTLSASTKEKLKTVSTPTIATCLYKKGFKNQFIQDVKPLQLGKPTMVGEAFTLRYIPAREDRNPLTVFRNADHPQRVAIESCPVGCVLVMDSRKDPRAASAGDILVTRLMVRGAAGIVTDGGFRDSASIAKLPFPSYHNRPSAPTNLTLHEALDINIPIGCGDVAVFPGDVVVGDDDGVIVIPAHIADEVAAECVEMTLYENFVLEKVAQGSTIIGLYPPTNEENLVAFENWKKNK

[3] = tested on: T1, recFlRed; assay: coenzyme consumption by absorbance at […] nm, Michaelis-Menten fit; format: biochemical, Flavobacterium sp. UMI-01; conditions: reductase direction; 5 mM DEHU, 0.15 M KCl, 10 mM sodium phosphate pH 7.4, 20 °C
[4] = tested on: T1, recFlRed; assay: NADPH formation by absorbance at […] nm, Michaelis-Menten fit; format: biochemical, Flavobacterium sp. UMI-01; conditions: oxidase direction; 5 mM DEHU, 0.15 M KCl, 10 mM sodium phosphate pH 7.4, 20 °C
[5] = target: T3, recFlDeg (Flavobacterium sp. UMI-01, UniProt A0A6S6ASF6); assay: NADH formation at […] nm; format: biochemical; conditions: […] alpha-KGSA, […] potassium phosphate pH […] KCl, […] MgCl2, […] °C
T3 construct: full length, His-tag, E. coli BL21(DE3); calculated mass 57,142 Da; Glu251 and Cys288 conserved
T3 sequence (A0A6S6ASF6 1-515): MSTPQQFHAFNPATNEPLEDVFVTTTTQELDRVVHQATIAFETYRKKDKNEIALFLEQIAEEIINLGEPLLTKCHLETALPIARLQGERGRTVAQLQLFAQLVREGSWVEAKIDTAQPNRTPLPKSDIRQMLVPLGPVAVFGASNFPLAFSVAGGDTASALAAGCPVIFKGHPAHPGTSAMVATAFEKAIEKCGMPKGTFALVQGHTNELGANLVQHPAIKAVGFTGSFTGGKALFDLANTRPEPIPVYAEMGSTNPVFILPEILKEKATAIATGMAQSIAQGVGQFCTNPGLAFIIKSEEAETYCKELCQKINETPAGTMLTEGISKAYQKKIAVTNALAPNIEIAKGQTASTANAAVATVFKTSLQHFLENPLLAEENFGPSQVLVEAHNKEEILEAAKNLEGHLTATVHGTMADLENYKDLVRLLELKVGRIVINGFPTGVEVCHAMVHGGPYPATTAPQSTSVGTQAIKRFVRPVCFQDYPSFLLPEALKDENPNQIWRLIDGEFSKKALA

[6] = tested on: T1, recFlRed; assay: NADH formation by absorbance at […] nm, Michaelis-Menten fit; format: biochemical, Flavobacterium sp. UMI-01; conditions: oxidase direction; 5 mM DEHU, 0.15 M KCl, 10 mM sodium phosphate pH 7.4, 20 °C
[7] = target: T3, recFlDeg; assay: NADH formation at […] nm; TLC, ESI-MS and NMR of product; format: biochemical; conditions: NAD+, […] potassium phosphate pH […] KCl, […] MgCl2, […] °C

Structure (SMILES): O=C(O)C(=O)C[C@H](O)[C@H](O)C(=O)O [KDGR]
TBA method (decrease at 548 nm), TLC, ESI-MS of product [2]: KDGR was determined to be the sole α-keto acid recognized by recFlDet

Structure (SMILES): NC(=O)C1=CN([C@@H]2O[C@H](COP(=O)(O)OP(=O)(O)OC[C@H]3O[C@@H](n4cnc5c(N)ncnc54)[C@H](OP(=O)(O)O)[C@@H]3O)[C@@H](O)[C@H]2O)C=CC1 [NADPH]
Km [3]: 980 ± 100 µM

Structure (SMILES): O=CCCC(=O)C(=O)O [α-KGSA]
NADH formation at 340 nm; TLC, ESI-MS and NMR of product [7]: FlDeg is the enzyme catalyzing the oxidation of the aldehyde group of α-KGSA

The next lines start with the values.

Km [1]: 2600 ± 100 µM
Structure (SMILES): O=C[C@@H](O)[C@@H](O)CC(=O)C(=O)O [DEHU]

Km [3]: 37 ± 2 µM
Structure (SMILES): NC(=O)C1=CN([C@@H]2O[C@H](COP(=O)(O)OP(=O)(O)OC[C@H]3O[C@@H](n4cnc5c(N)ncnc54)[C@H](O)[C@@H]3O)[C@@H](O)[C@H]2O)C=CC1 [NADH]

Km [4]: 1400 ± 200 µM
Structure (SMILES): NC(=O)c1ccc[n+]([C@@H]2O[C@H](COP(=O)(O)OP(=O)(O)OC[C@H]3O[C@@H](n4cnc5c(N)ncnc54)[C@H](OP(=O)(O)O)[C@@H]3O)[C@@H](O)[C@H]2O)c1 [NADP^+]

NADH formation at 340 nm [5]: recFlDeg preferred NAD^+ to NADP^+
Km [6]: 98 ± 10 µM
Structure (SMILES): NC(=O)c1ccc[n+]([C@@H]2O[C@H](COP(=O)(O)OP(=O)(O)OC[C@H]3O[C@@H](n4cnc5c(N)ncnc54)[C@H](O)[C@@H]3O)[C@@H](O)[C@H]2O)c1 [NAD^+]
